The results in this text go back to US9828339B2, “Biphenyl derivatives and methods for preparing same” (DONG-A ST CO., LTD, priority 2013, dated 2017).

Test [1] concerns the target T1, human muscarinic M3 receptor (Homo sapiens (Human), UniProt P20309). As to the kind of experiment: Binding assay on human muscarinic M3 receptor ([3H]-methyl scopolamine displacement). As to conditions: membranes overexpressing human M3 receptor, Ki from IC50 by Cheng-Prusoff, read-out: Binding Affinity to M3 Receptor, Ki. Put shortly: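 Displacement of [3H]-methyl scopolamine from membranes overexpressing human M3, in Tris-HCl, 25 °C, 120 min; filter-bound radioactivity counted. Nonspecific binding with 5 μM atropine; Ki from IC50 via Cheng-Prusoff.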

The target in test [2] is T1, human muscarinic M3 receptor. As to the kind of experiment: Antagonism assay on human muscarinic M3 receptor (carbachol-induced intracellular calcium, FLIPR Calcium 5, transfected Cos-7 cells). In kind it is cell-based. As to conditions: functional inhibitory constant; carbachol-induced intracellular calcium in Cos-7 cells transfected with human M3 receptor. In short, it runs like this: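 Cos-7 cells transfected with human M3 receptor plasmid, pre-treated 3 min with compound, then carbachol-stimulated; intracellular calcium read by FLIPR Calcium 5.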
Background: Calcium assays in cells follow changes in intracellular calcium, usually with a dye or a luminescent sensor.

Test [3] has as its system rhythmic bladder contractions. Description: Rhythmic bladder contractions in rats (in vivo). Set-up: species or system rat. The settings on record: 0.3 mpk, intravenous, female Sprague-Dawley rats; amplitude reduction of bladder contractions. From the text:
[Experimental Example 3] Experiment on Rhythmic Bladder Contractions in Rats (In Vivo)
Female Sprague-Dawley rat was halothane-anesthetized, and a polyethylene catheter was inserted through urethra lay down straight and fixed. Urine in bladder was excreted through the catheter by gently massaging abdomen of the rat, and then removed. A three-way stopcock was connected to the catheter and a pressure transducer was connected to one side of the three-way stopcock to measure pressure, and a syringe was installed at the other side to inject 37° C. of saline solution. The saline solution was slowly injected until regular bladder contractions occurred repeatedly. When regular bladder contractions occurred stably, test compounds were administered intravenously through the tail vein. Inhibitory effect of the test compounds was evaluated by measuring degree of amplitude reduction of bladder contractions.

Each structure is given as a SMILES string.

T1 sequence (P20309 whole entry): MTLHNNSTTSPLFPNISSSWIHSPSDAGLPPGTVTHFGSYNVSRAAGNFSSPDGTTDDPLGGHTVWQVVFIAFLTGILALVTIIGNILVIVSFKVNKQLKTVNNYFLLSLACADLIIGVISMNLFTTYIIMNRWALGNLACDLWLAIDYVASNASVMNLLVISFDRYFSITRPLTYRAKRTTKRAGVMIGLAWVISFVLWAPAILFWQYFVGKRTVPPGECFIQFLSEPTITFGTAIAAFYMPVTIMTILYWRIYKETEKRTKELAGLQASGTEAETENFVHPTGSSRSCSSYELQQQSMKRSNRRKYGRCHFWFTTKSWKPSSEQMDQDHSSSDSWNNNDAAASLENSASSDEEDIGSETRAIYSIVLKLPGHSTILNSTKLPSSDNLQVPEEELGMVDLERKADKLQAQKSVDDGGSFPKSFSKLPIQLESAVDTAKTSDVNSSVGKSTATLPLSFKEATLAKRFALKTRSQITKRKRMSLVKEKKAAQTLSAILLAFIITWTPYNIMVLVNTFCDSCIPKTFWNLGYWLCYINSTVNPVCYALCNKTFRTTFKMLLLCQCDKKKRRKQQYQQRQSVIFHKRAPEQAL

The Ki is the equilibrium dissociation constant of an inhibitor or competing ligand from its target. Regarding `CN1CCCC1CCOC(=O)Nc1ccccc1-c1cc(F)cc(F)c1` (centres unmarked) [Example 2, 2-(1-methylpyrrolidin-2-yl)ethyl(3′,5′-difluoro-[1,1′-biphenyl]-2-yl)carbamate], the Ki in test [1] stood at 8.69 nM; in test [2], 6.02 nM. For the same compound, the “Inhibition of Rhythmic bladder contraction in rats” value (from here on “Inhibition”) in test [3] was found to be 20.1 ± 3.1%.

On to `CN1CCCC1CCOC(=O)Nc1ccccc1-c1cccc(F)c1` (centres unmarked) [Example 4, 2-(1-methylpyrrolidin-2-yl)ethyl(3′-fluoro-[1,1′-biphenyl]-2-yl)carbamate], for which the Ki was 2.93 nM in test [1] and 3.41 nM in test [2]. Moreover, the “Inhibition” value in test [3] is 22.3 ± 4.9%.

Turning to `CN1CCCC1CCOC(=O)Nc1ccccc1-c1cccc(Cl)c1` (centres unmarked) [Example 8, 2-(1-methylpyrrolidin-2-yl)ethyl(3′-chloro-[1,1′-biphenyl]-2-yl)carbamate], the Ki was determined as 1.33 nM in test [1] and 3.02 nM in test [2]. Further, in test [3], the “Inhibition” value is given as 23.2 ± 2.3%.

For `CN1CCCC1CCOC(=O)Nc1ccc(F)cc1-c1ccc(F)cc1` (centres unmarked) [Example 19, 2-(1-methylpyrrolidin-2-yl)ethyl(4′,5-difluoro-[1,1′-biphenyl]-2-yl)carbamate], the Ki worked out at 4.17 nM in test [1] and 1.9 nM in test [2]. In addition, the “Inhibition” value in test [3] was found to be 12.8 ± 3.0%.

Regarding `Cc1cccc(-c2cc(F)ccc2NC(=O)OCCC2CCCN2C)c1` (centres unmarked) [Example 22, 2-(1-methylpyrrolidin-2-yl)ethyl(5-fluoro-3′-methyl-[1,1′-biphenyl]-2-yl)carbamate], the figures for the Ki in test [1] and in test [2] were 3.79 nM and 2.39 nM, respectively. Also, the “Inhibition” value in test [3] amounted to 16.7 ± 1.7%.

For `CN1CCCC1CCOC(=O)Nc1ccccc1-c1ccccc1F` (centres unmarked) [Example 34, 2-(1-methylpyrrolidin-2-yl)ethyl(2′-fluoro-[1,1′-biphenyl]-2-yl)carbamate], the results for the inhibition constant Ki in test [1] and in test [2] were 19.6 nM and 2.64 nM, respectively. For the same compound, the “Inhibition” value in test [3] worked out at 20.1 ± 1.8%.

As to `CN1CCCC1CCOC(=O)Nc1ccc(F)cc1-c1cc(F)cc(Cl)c1` (centres unmarked) [Example 52, 2-(1-methylpyrrolidin-2-yl)ethyl (3′-chloro-5,5′-difluoro-[1,1′-biphenyl]-2-yl)carbamate], the Ki is 10 nM in test [1] and 1.22 nM in test [2]. The “Inhibition” value in test [3] is 10.8 ± 0.8%.

Regarding `Cc1ccc(-c2cc(F)ccc2NC(=O)OCCC2CCCN2C)cc1C` (centres unmarked) [Example 59, 2-(1-methylpyrrolidin-2-yl)ethyl(5-fluoro-3′,4′-dimethyl-[1,1′-biphenyl]-2-yl)carbamate], the Ki worked out at 6.42 nM in test [1] and 2.38 nM in test [2]. In addition, the “Inhibition” value in test [3] amounted to 11.6 ± 1.9%.

Consider `CN1CCCC1CCOC(=O)Nc1ccc(Cl)cc1-c1ccccc1` (centres unmarked) [Example 66, 2-(1-Methylpyrrolidin-2-yl)ethyl (5-chloro-[1,1′-biphenyl]-2-yl)carbamate], for which the Ki in test [1] worked out at 6.98 nM; in test [2], 3.06 nM. The “Inhibition” value in test [3] was determined as 12.0 ± 1.4%.

For the compound `CN1CCCC1CCOC(=O)Nc1ccc(Cl)cc1-c1cccc(Cl)c1` (centres unmarked) [Example 70, 2-(1-Methylpyrrolidin-2-yl)ethyl(3′,5-dichloro-[1,1′-biphenyl]-2-yl)carbamate], the inhibition constant (Ki) in test [1] turned out to be 8.17 nM; in test [2], 1.95 nM. Moreover, the “Inhibition” value in test [3] was determined as 9.7 ± 4.1%.

Consider `CN1CCCC1CCOC(=O)Nc1ccc(Cl)cc1-c1ccc(F)c(Cl)c1` (centres unmarked) [Example 73, 2-(1-Methylpyrrolidin-2-yl)ethyl(3′,5-dichloro-4′-fluoro-[1,1′-biphenyl]-2-yl)carbamate], for which the Ki in test [1] is 4.84 nM; in test [2], 4.75 nM. The “Inhibition” value in test [3] is recorded as 10.0 ± 1.0%.

In the case of `CN1CC[C@@H](COC(=O)Nc2ccc(F)cc2-c2cc(F)cc(F)c2)C1` [Example 95, (R)-(1-methylpyrrolidin-3-yl)methyl (3′,5,5′-trifluoro-[1,1′-biphenyl]-2-yl)carbamate], the values for the Ki in test [1] and in test [2] were 6.27 nM and 0.75 nM, respectively. Besides, in test [3], the “Inhibition” value is reported as 15.7 ± 0.8%.

For the compound `CN1CC[C@@H](COC(=O)Nc2ccccc2-c2cccc(Cl)c2)C1` [Example 117, (R)-(1-methylpyrrolidin-3-yl)methyl(3′-chloro-[1,1′-biphenyl]-2-yl)carbamate], the results for the Ki in test [1] and in test [2] were 1.6 nM and 0.34 nM, respectively. In addition, the “Inhibition” value in test [3] is reported as 15.4 ± 0.1%.

Take `CN1CC[C@H](COC(=O)Nc2ccc(F)cc2-c2ccc(F)cc2)C1` [Example 124, (S)-(1-methylpyrrolidin-3-yl)methyl(4′,5-difluoro-[1,1′-biphenyl]-2-yl)carbamate]: the Ki stood at 8.12 nM in test [1] and 2.86 nM in test [2]. Further, the “Inhibition” value in test [3] turned out to be 21.2 ± 0.7%.

For the compound `CN1CC[C@H](COC(=O)Nc2ccc(F)cc2-c2ccc(Cl)c(Cl)c2)C1` [Example 128, (S)-(1-methylpyrrolidin-3-yl)methyl(3′,4′-dichloro-5-fluoro-[1,1′-biphenyl]-2-yl)carbamate], the Ki in test [1] stood at 3.41 nM; in test [2], 1.2 nM. In addition, the “Inhibition” value in test [3] was 15.1 ± 3.4%.

Take `CN1CCC[C@H]1COC(=O)Nc1ccccc1-c1ccccc1` [Example 197, (S)-(1-methylpyrrolidin-2-yl)-methyl [1,1′-biphenyl]-2-ylcarbamate]: the inhibition constant (Ki) in test [1] stood at 0.78 nM. For the same compound, in test [3], the “Inhibition” value amounted to 32.8 ± 9.7%.

As for `CN1CCC[C@H]1COC(=O)Nc1ccccc1-c1ccc(F)cc1` [Example 198, (S)-(1-methylpyrrolidin-2-yl)methyl(4′-fluoro-[1,1′-biphenyl]-2-yl)carbamate], the Ki in test [1] was 1.87 nM. Also, the “Inhibition” value in test [3] stood at 26.3 ± 2.4%.

With `Cc1cccc(-c2cc(F)ccc2NC(=O)OC[C@@H]2CCCN2C)c1` [Example 201, (S)-(1-methylpyrrolidin-2-yl)methyl (5-fluoro-3′-methyl-[1,1′-biphenyl]-2-yl)carbamate], in test [1], the Ki is 2.7 nM. In addition, in test [3], the “Inhibition” value is listed as 9.1 ± 3.0%.

Regarding `CN1CCC[C@H]1COC(=O)Nc1ccc(F)cc1-c1cccc(F)c1` [Example 202, (S)-(1-methylpyrrolidin-2-yl)methyl (3′,5-difluoro-[1,1′-biphenyl]-2-yl)carbamate], the Ki in test [1] worked out at 2.18 nM. The “Inhibition” value in test [3] came to 17.3 ± 1.3%.

For the compound `CN1CCC[C@H]1COC(=O)Nc1ccc(F)cc1-c1ccc(F)cc1` [Example 203, (S)-(1-methylpyrrolidin-2-yl)methyl (4′,5-difluoro-[1,1′-biphenyl]-2-yl)carbamate], in test [1], the Ki is 2.36 nM. Moreover, the “Inhibition” value in test [3] came out at 19.4 ± 4.0%.

For the compound `CN1CCC[C@H]1COC(=O)Nc1cc(F)ccc1-c1ccccc1` [Example 204, (S)-(1-methylpyrrolidin-2-yl)methyl (4-fluoro-[1,1′-biphenyl]-2-yl)carbamate], the Ki in test [1] was found to be 3.53 nM. For the same compound, in test [3], the “Inhibition” value turned out to be 23.3 ± 6.6%.

As to `CN1CCC[C@H]1COC(=O)Nc1cc(F)ccc1-c1cccc(F)c1` [Example 205, (S)-(1-methylpyrrolidin-2-yl)methyl(3′,4-difluoro-[1,1′-biphenyl]-2-yl)carbamate], in test [1], the Ki turned out to be 7.95 nM. Also, the “Inhibition” value in test [3] was 11.9 ± 3.7%.
